Measured values: ChEMBL document CHEMBL1275281, “Synthesis, anti-inflammatory evaluation and docking studies of some new fluorinated fused quinazolines” (2010)

Legend:
Rattus norvegicus [1] = assay: Antiinflammatory activity in Wistar rat assessed as inhibition of carrageenan-induced paw edema at 10 mg/kg, po administered 1 hr before carrageenan challenge and measured 2 hrs post carrageenan challenge relative to untreated control; format: functional
Rattus norvegicus [2] = assay: Antiinflammatory activity in Wistar rat assessed as inhibition of carrageenan-induced paw edema at 10 mg/kg, po administered 1 hr before carrageenan challenge and measured 4 hrs post carrageenan challenge relative to untreated control; format: functional

## NC(=O)c1c(C(F)(F)F)cc(-c2ccccc2)c2c1N=C(c1ccco1)N1CCN=C21
Rattus norvegicus [1]
  inhibition in vivo at 10 mg/kg: 29%
Rattus norvegicus [2]
  inhibition in vivo at 10 mg/kg: 28%

## NC(=O)c1c(C(F)(F)F)cc(-c2ccccc2)c2c1N=C(c1ccc(O)cc1)N1CCN=C21
Rattus norvegicus [1]
  inhibition in vivo at 10 mg/kg: 59%
Rattus norvegicus [2]
  inhibition in vivo at 10 mg/kg: 57%

## NC(=O)c1c(-c2ccccc2)cc(C(F)(F)F)c2c1N=C(c1ccco1)N1CCN=C21
Rattus norvegicus [1]
  inhibition in vivo at 10 mg/kg: 31%
Rattus norvegicus [2]
  inhibition in vivo at 10 mg/kg: 30%

## NC(=O)c1c(C(F)(F)F)cc(-c2ccccc2)c2c1N=C(c1cccs1)N1CCN=C21
Rattus norvegicus [1]
  inhibition in vivo at 10 mg/kg: 34%
Rattus norvegicus [2]
  inhibition in vivo at 10 mg/kg: 33%

## COc1ccc2c(c1)c(CC(=O)O)c(C)n2C(=O)c1ccc(Cl)cc1 [INDOMETHACIN]
Rattus norvegicus [1]
  inhibition in vivo at 10 mg/kg: 79%
Rattus norvegicus [2]
  inhibition in vivo at 10 mg/kg: 75%

## NC(=O)c1c(-c2ccccc2)cc(C(F)(F)F)c2c1N=C(c1ccc(O)cc1)N1CCN=C21
Rattus norvegicus [1]
  inhibition in vivo at 10 mg/kg: 61%
Rattus norvegicus [2]
  inhibition in vivo at 10 mg/kg: 60%

## NC(=O)c1c(-c2ccccc2)cc(C(F)(F)F)c2c1N=C(c1cccs1)N1CCN=C21
Rattus norvegicus [1]
  inhibition in vivo at 10 mg/kg: 25%
Rattus norvegicus [2]
  inhibition in vivo at 10 mg/kg: 24%
